Laboratory results reported in PubChem BioAssay AID248 (DTP/NCI, 2004).
Where “and” joins values, the source holds several entries; their conditions need not be identical. Equal values may be shown once. Inconclusive results and toxic doses are left out.

Tested on: L1210 leukemia ip in BDF1 mice, survival T/C
Test: NCI In Vivo Anticancer Drug Screen. Data for tumor model L1210 Leukemia (intraperitoneal) in B6D2F1 (BDF1) mice
Settings: endpoint: mean survival time, higher = longer survival
Summary of the method: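 Survival endpoint. Drug-treated group vs vehicle group, expressed as T divided by C. Tumor passaged by transplantation.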

[1] = dose: 100.0 mg/kg/injection, schedule: Q04DX003 (ip), vehicle: Klucel (hydroxypropylcellulose) (HPC)
[2] = dose: 200.0 mg/kg/injection, schedule: Q04DX003 (ip), vehicle: Klucel (hydroxypropylcellulose) (HPC)
[3] = dose: 400.0 mg/kg/injection, schedule: Q04DX003 (ip), vehicle: Klucel (hydroxypropylcellulose) (HPC)
[4] = dose: 100.0 mg/kg/injection, schedule: Q04DX002 (ip), vehicle: Klucel (hydroxypropylcellulose) (HPC)
[5] = dose: 200.0 mg/kg/injection, schedule: Q04DX002 (ip), vehicle: Klucel (hydroxypropylcellulose) (HPC)
[6] = dose: 400.0 mg/kg/injection, schedule: Q04DX002 (ip), vehicle: Klucel (hydroxypropylcellulose) (HPC)
[7] = dose: 25.0 mg/kg/injection, schedule: Q04DX003 (ip), vehicle: saline with Tween-80
[8] = dose: 50.0 mg/kg/injection, schedule: Q04DX003 (ip), vehicle: saline with Tween-80
[9] = dose: 100.0 mg/kg/injection, schedule: Q04DX003 (ip), vehicle: saline with Tween-80
[10] = dose: 50.0 mg/kg/injection, schedule: Q01DX009 (ip), vehicle: Klucel (hydroxypropylcellulose) (HPC)
[11] = dose: 100.0 mg/kg/injection, schedule: Q01DX009 (ip), vehicle: saline with Tween-80
[12] = dose: 200.0 mg/kg/injection, schedule: Q01DX009 (ip), vehicle: saline with Tween-80
[13] = dose: 100.0 mg/kg/injection, schedule: Q01DX001 (ip), vehicle: saline
[14] = dose: 400.0 mg/kg/injection, schedule: Q01DX001 (ip), vehicle: saline
[15] = dose: 100.0 mg/kg/injection, schedule: Q01DX009 (ip), vehicle: Klucel (hydroxypropylcellulose) (HPC)
[16] = dose: 200.0 mg/kg/injection, schedule: Q01DX009 (ip), vehicle: Klucel (hydroxypropylcellulose) (HPC)
[17] = dose: 100.0 mg/kg/injection, schedule: Q04DX002 (ip), vehicle: saline

With `Clc1ccc(-c2coc3cccc[n+]23)cc1` the T/C (dose: 75.0 mg/kg/injection, schedule: Q01DX001 (ip), vehicle: other) was 100 % of control, the T/C (dose: 150.0 mg/kg/injection, schedule: Q01DX001 (ip), vehicle: other) was 97 % of control and the T/C (dose: 300.0 mg/kg/injection, schedule: Q01DX001 (ip), vehicle: other) was 97 % of control.
For `CN(Cc1cnc2nc(N)nc(N)c2n1)c1ccc(C(=O)NC(CCC(=O)NCC(=O)O)C(=O)O)cc1` (stereo not drawn), the T/C (dose: 5.0 mg/kg/injection, schedule: Q01DX009 (ip), vehicle: sodium bicarbonate) was 174 % of control and the T/C (dose: 10.0 mg/kg/injection, schedule: Q01DX009 (ip), vehicle: sodium bicarbonate) was 161 % of control.
`O=[N+]([O-])c1ccc(C=Nc2cccc3ccccc23)s1` was tested, and the T/C [1] was 95 % of control, the T/C [2] was 95 % of control and the T/C [3] was 92 % of control.
For `Cc1cccc(C2NC(=O)c3ccccc3N2)c1` (stereo not drawn), the T/C [1] was 91 % of control, the T/C [2] was 112 % of control and the T/C [3] was 91 % of control.
`O=S(=O)(O)O.[NH-]CC(N)=O.[NH-]CC(N)=O.[Ni+2]` was tested, and the T/C (dose: 6.25 mg/kg/injection, schedule: Q01DX009 (ip), vehicle: water) was 109 % of control, the T/C (dose: 12.5 mg/kg/injection, schedule: Q01DX009 (ip), vehicle: water) was 97 % of control and the T/C (dose: 25.0 mg/kg/injection, schedule: Q01DX009 (ip), vehicle: water) was 90 % of control.
For `O=C(O)C1CC(Br)C(Br)CC1C(=O)Nc1cccc2ccccc12` (stereo not drawn), the T/C [4] was 100 % of control, the T/C [5] was 92 % of control and the T/C [6] was 95 % of control.
`CC1(C)N=C(N)N=C(N)N1c1cccc(CCCCc2cccc(N)c2)c1` was tested, and the T/C (dose: 5.0 mg/kg/injection, schedule: Q01DX001 (ip), vehicle: saline) was 98 % of control, the T/C (dose: 10.0 mg/kg/injection, schedule: Q01DX001 (ip), vehicle: saline) was 102 % of control and the T/C (dose: 20.0 mg/kg/injection, schedule: Q01DX001 (ip), vehicle: saline) was 113 % of control.
`Cc1cccc(C)c1OC(=O)Nc1cccc2ccccc12` was tested, and the T/C (dose: 12.5 mg/kg/injection, schedule: Q04DX002 (ip), vehicle: Klucel (hydroxypropylcellulose) (HPC)) was 105 % of control, the T/C (dose: 25.0 mg/kg/injection, schedule: Q04DX002 (ip), vehicle: Klucel (hydroxypropylcellulose) (HPC)) was 118 % of control and the T/C (dose: 50.0 mg/kg/injection, schedule: Q04DX002 (ip), vehicle: Klucel (hydroxypropylcellulose) (HPC)) was 112 % of control. The T/C [4] was 95 % of control, the T/C [5] was 97 % of control and the T/C [6] was 89 % of control.
With `CCOP(=S)(OCC)SC(C)(C)C` the T/C [7] was 95 % of control, the T/C [8] was 103 % of control and the T/C [9] was 104 % of control and 108 % of control.
With `O=C(/C(=C\c1ccccc1)CN1CCOCC1)c1ccc(Br)cc1` the T/C (dose: 12.5 mg/kg/injection, schedule: Q01DX009 (ip), vehicle: Klucel (hydroxypropylcellulose) (HPC)) was 96 % of control, the T/C (dose: 25.0 mg/kg/injection, schedule: Q01DX009 (ip), vehicle: Klucel (hydroxypropylcellulose) (HPC)) was 93 % of control and the T/C [10] was 91 % of control. The T/C [9] was 87 % of control and the T/C (dose: 200.0 mg/kg/injection, schedule: Q04DX003 (ip), vehicle: saline with Tween-80) was 93 % of control.
In the case of `CCC(O)C(C)(O)C(=O)O` (stereo not drawn), the T/C (dose: 50.0 mg/kg/injection, schedule: Q01DX009 (ip), vehicle: saline with Tween-80) is reported as 96 % of control, the T/C [11] is reported as 96 % of control and the T/C [12] is reported as 92 % of control.
With `O=c1cnn(C2OC(CO)C(O)C2O)c(=S)[nH]1` (stereo not drawn) the T/C (dose: 100.0 mg/kg/injection, schedule: Q01DX005 (ip), vehicle: saline) was 113 % of control, the T/C (dose: 100.0 mg/kg/injection, schedule: Q01DX009 (ip), vehicle: saline) was 124 % of control and the T/C (dose: 200.0 mg/kg/injection, schedule: Q01DX005 (ip), vehicle: saline) was 108 % of control. The T/C (dose: 200.0 mg/kg/injection, schedule: Q01DX009 (ip), vehicle: saline) was 123 % of control and the T/C (dose: 400.0 mg/kg/injection, schedule: Q01DX009 (ip), vehicle: saline) was 117 % of control.
For `Oc1c(Br)cc(Br)cc1/C=N/N1CCN(/N=C/c2cc(Br)cc(Br)c2O)CC1`, the T/C [13] was 87 % of control and the T/C [14] was 90 % of control.
`c1ccc([P+](c2ccccc2)(c2ccccc2)C2OCCO2)cc1` was tested, and the T/C [7] was 95 % of control and the T/C [8] was 103 % of control.
For `CCCCNS(=O)(=O)c1ccc(OC)c(NC(=O)c2ccc(C(=O)Nc3cc(S(=O)(=O)NCCCC)ccc3OC)cc2)c1`, the T/C [13] was 105 % of control, the T/C (dose: 200.0 mg/kg/injection, schedule: Q01DX001 (ip), vehicle: saline) was 94 % of control and the T/C [14] was 94 % of control.
With `CCCCCCCCCCOc1ccc(/C=N\N=C\c2ccc(OCCCCCCCCCC)cc2)cc1` the T/C [11] was 88 % of control, the T/C [12] was 97 % of control and the T/C (dose: 400.0 mg/kg/injection, schedule: Q01DX009 (ip), vehicle: saline with Tween-80) was 95 % of control.
With `Cc1[nH]c2ccccc2c1C(c1ccccc1O)c1c(C)[nH]c2ccccc12` the T/C [15] was 97 % of control, the T/C [16] was 103 % of control and the T/C (dose: 400.0 mg/kg/injection, schedule: Q01DX009 (ip), vehicle: Klucel (hydroxypropylcellulose) (HPC)) was 101 % of control.
`Nc1nc2c(ncn2-c2ccc(OCCCc3ccccc3)cc2)c(=O)[nH]1` was tested, and the T/C (dose: 1.56 mg/kg/injection, schedule: Q01DX001 (ip), vehicle: saline with Tween-80) was 97 % of control, the T/C (dose: 3.13 mg/kg/injection, schedule: Q01DX001 (ip), vehicle: saline with Tween-80) was 92 % of control and the T/C (dose: 6.25 mg/kg/injection, schedule: Q01DX001 (ip), vehicle: saline with Tween-80) was 94 % of control and 87 % of control. For the same molecule, the T/C (dose: 25.0 mg/kg/injection, schedule: Q01DX001 (ip), vehicle: saline with Tween-80) was 92 % of control and 91 % of control.
`Clc1nc(Nc2ccccc2)c2ccccc2n1` was tested, and the T/C [10] was 111 % of control, the T/C [15] was 95 % of control and the T/C [16] was 107 % of control.
For `C[CH2][Ge]1([CH2]C)[CH2]CC2(C[CH2]1)NC(=O)N(CCCN(C)C)C2=O`, the T/C [17] was 100 % of control and the T/C (dose: 200.0 mg/kg/injection, schedule: Q04DX002 (ip), vehicle: saline) was 105 % of control.
In the case of `C=CCN(CC=C)/N=N/c1nc[nH]c1C(N)=O`, the T/C (dose: 37.5 mg/kg/injection, schedule: Q01DX009 (ip), vehicle: saline with Tween-80) is reported as 104 % of control, the T/C (dose: 75.0 mg/kg/injection, schedule: Q01DX009 (ip), vehicle: saline with Tween-80) is reported as 100 % of control and the T/C (dose: 150.0 mg/kg/injection, schedule: Q01DX009 (ip), vehicle: saline with Tween-80) is reported as 98 % of control.
With `CC1[N-]CCC[N-]CCC[N-]C(C)C2CCCC1[N-]2.[Ni+2].[O-][Cl+3]([O-])([O-])O` (stereo not drawn) the T/C (dose: 25.0 mg/kg/injection, schedule: Q04DX002 (ip), vehicle: saline) was 92 % of control, the T/C (dose: 50.0 mg/kg/injection, schedule: Q04DX002 (ip), vehicle: saline) was 89 % of control and the T/C [17] was 92 % of control.
In the case of `COc1ccc2c(c1)CCC1C2=CC(=O)CC1c1ccco1` (stereo not drawn), the T/C [1] is reported as 102 % of control, the T/C [2] is reported as 93 % of control and the T/C [3] is reported as 88 % of control.
